How the values were obtained:
[1] = biological target: D4.2; conditions: Scheideler et al., 1997; cited from earlier work
[2] = Water solubility; assay type: physicochemical
[3] = biological target: D2S (Homo sapiens (Human), UniProt P14416); conditions: Scheideler et al., 1997; cited from earlier work
Sequence of D2S (P14416 other isoform, or with tags, fused parts or gaps): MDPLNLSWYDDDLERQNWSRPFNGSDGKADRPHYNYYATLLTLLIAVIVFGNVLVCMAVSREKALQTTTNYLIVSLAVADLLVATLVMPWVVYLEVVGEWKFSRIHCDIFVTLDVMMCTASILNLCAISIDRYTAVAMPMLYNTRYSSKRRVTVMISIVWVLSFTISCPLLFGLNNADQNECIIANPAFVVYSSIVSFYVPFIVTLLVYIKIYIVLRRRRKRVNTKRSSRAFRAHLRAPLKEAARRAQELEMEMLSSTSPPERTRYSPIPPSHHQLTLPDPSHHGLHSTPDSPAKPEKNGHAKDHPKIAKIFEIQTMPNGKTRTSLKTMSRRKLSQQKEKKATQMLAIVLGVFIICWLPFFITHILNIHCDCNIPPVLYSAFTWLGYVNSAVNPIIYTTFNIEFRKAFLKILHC

CCCN1CC[C@@H]2c3cc(O)ccc3CC[C@@H]21 [PBZI, (3aS,9bR)-3-propyl-1,2,3a,4,5,9b-hexahydrobenzo[e]indol-8-ol]
Ki [1]: 280 nM | water solubility [2]: water soluble | Ki [3]: 1800 nM
